How the values were obtained:
Assay in all cases: UV difference spectrum after size exclusion chromatography
Conditions in all cases: 3 mM ATP, 55 °C 60 min incubation, pH 7.5, 5 mM MgCl2; binding stoichiometry, not an affinity
TDnaK [1] = molecular target: T1, TDnaK (Thermus thermophilus, UniProt Q56235, K69A)
T1 construct: gene dnaK; full length, untagged (plasmid pMDK6), expressed in E. coli; C-terminus Asp615

TDnaK [2] = molecular target: T2, TDnaK (Thermus thermophilus, UniProt Q56235, T195A)
T2 construct: gene dnaK; full length, untagged (plasmid pMDK6), expressed in E. coli; C-terminus Asp615

TDnaK [3] = molecular target: T3, TDnaK (Thermus thermophilus, UniProt Q56235)
T3 construct: gene dnaK; full length, untagged (plasmid pMDK6), expressed in E. coli; C-terminus Asp615
T3 sequence (Q56235 whole entry): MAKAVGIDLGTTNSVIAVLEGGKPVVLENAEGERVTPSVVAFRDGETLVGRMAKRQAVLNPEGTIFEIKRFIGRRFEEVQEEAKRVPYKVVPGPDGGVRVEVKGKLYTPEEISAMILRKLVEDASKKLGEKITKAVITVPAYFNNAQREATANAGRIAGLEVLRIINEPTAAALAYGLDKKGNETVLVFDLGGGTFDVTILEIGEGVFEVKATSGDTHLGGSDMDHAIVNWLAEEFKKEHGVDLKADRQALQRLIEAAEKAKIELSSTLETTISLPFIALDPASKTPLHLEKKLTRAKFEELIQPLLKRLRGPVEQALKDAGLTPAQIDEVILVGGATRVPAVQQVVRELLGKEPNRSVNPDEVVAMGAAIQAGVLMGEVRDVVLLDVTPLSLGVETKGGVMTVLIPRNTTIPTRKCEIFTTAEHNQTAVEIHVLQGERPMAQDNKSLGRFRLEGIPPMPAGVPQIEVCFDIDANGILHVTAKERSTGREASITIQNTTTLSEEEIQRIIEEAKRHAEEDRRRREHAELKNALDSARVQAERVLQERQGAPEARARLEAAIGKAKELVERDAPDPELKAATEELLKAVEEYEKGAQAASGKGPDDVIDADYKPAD

T2 sequence (Q56235 whole entry T195A): as the sequence (Q56235 whole entry) above, with T195A counted along it
T1 sequence (Q56235 whole entry K69A): as the sequence (Q56235 whole entry) above, with K69A counted along it

With `Nc1ncnc2c1ncn2[C@@H]1O[C@H](COP(=O)(O)OP(=O)(O)OP(=O)(O)O)[C@@H](O)[C@H]1O` [ATP] the “bound ATP per TDnaK” value (TDnaK [1]) was 0.89 mol/mol, the “bound ATP per TDnaK” value (TDnaK [2]) was 0.64 mol/mol and the “bound ATP per TDnaK” value (TDnaK [3]) was 0.70 mol/mol.

Source: PMC5561102, “Fusion protein analysis reveals the precise regulation between Hsp70 and Hsp100 during protein disaggregation” (Scientific Reports, 2017)
